Bounds are passed on as bounds.

Results on 19 molecules are retold here after US20250197403A1, “HETEROARYL COMPOUNDS FOR TREATMENT OF COMPLEMENT FACTOR D MEDIATED DISORDERS” (Achillion Pharmaceuticals, Inc., priority 2020, published 2025).

Chain of Human Factor D (P00746 26-253): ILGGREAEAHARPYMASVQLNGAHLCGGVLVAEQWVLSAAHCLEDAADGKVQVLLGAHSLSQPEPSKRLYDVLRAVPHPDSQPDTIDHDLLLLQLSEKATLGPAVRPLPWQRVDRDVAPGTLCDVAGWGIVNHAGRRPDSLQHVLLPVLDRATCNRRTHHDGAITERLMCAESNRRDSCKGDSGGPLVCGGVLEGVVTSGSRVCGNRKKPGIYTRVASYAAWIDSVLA

For this experiment, the target named is Human Factor D (Homo sapiens (Human), UniProt P00746). The experiment in a line: Human Factor D Assay. Type of experiment: biochemical. Conditions: Human Factor D 80 nM, substrate Z-L-Lys-SBzl, assay according to Example 3. The protocol:
The assay according to Example 3 was used to determine the IC50's of the compounds. Other standard factor D inhibition assays are also available.
Human Factor D (purified from human serum, Complement Technology, Inc.) at 80 nM final concentration is incubated with test compound at various concentrations for 5 min at room temperature in 50 mM Tris, 1M NaCl, pH 7.5. A synthetic substrate Z-L-Lys-SBzl and DTNB (Ellman's reagent) are added to final concentrations of 100 μM each. Absorbance at 405 nm (A405) is recorded at 30 second intervals for 30 min using a microplate spectrophotometer. IC50 values are calculated by nonlinear regression of complement Factor D reaction rates as a function of test compound concentration.
Turning to `CC(=O)c1cn(CC(=O)N2[C@H](C(=O)Nc3nc(C(F)(F)F)ccc3C)C[C@@]3(C)C[C@@H]23)c2c(C)nc(-c3cnc4cc(C)nn4c3)cc12` [Compound 55, (1R,3S,5R)-2-(2-(3-acetyl-7-methyl-5-(2-methylpyr-azolo[1,5-a]pyrimidin-6-yl)-1H-pyrrolo[2,3-c]pyr-idin-1-yl)acetyl)-5-methyl-N-(3-methyl-6-(trifluoro-methyl)pyridin-2-yl)-2-azabicyclo[3.1.0]hexane-3-carboxamide], the IC50 is < 1 µM.

On to `CC(=O)c1cn(CC(=O)N2[C@H](C(=O)Nc3nc(C(F)(F)F)cc(F)c3C)C[C@@]3(C)C[C@@H]23)c2c(C)cc(-c3cnc(C)nc3)cc12` [Compound 54, (1R,3S,5R)-2-(2-(3-acetyl-7-methyl-5-(2-methylpyr-imidin-5-yl)-1H-indol-1-yl)acetyl)-N-(4-fluoro-3-methyl-6-(trifluorometh-yl)pyridin-2-yl)-5-methyl-2-azabicyclo[3.1.0]hexane-3-carboxamide], for which the IC50 was < 1 µM.

For `CC(=O)c1cn(CC(=O)N2[C@H](C(=O)Nc3ccn(CC(F)(F)F)n3)C[C@@]3(C)C[C@@H]23)c2c(C)cc(-c3ccc4nc(C)nn4c3)cc12` [Compound 65, (1R,3S,5R)-2-(2-(3-acetyl-7-methyl-5-(2-methyl-[1,2,4]triazolo[1,5-a]pyr-idin-6-yl)-1H-indol-1-yl)-acetyl)-5-methyl-N-(1-(2,2,2-trifluoroethyl)-1H-pyrazol-3-yl)-2-azabicyclo [3.1.0]hexane-3-carbox-amide], the IC50 is < 1 µM.

As to `COCc1ccc(C(F)(F)F)nc1NC(=O)[C@@H]1C[C@@]2(C)C[C@H]2N1C(=O)Cn1cc(C(C)=O)c2cc(-c3ccc4nc(C)nn4c3)c(F)c(C)c21` [Compound 5, (1R,3S,5R)-2-(2-(3-acetyl-6-fluoro-7-methyl-5-(2-methyl-[1,2,4]triazolo[1,5-a]pyridin-6-yl)-1H-indol-1-yl)acetyl)-N-(3-(meth-oxymethyl)-6-(trifluoro-methyl)pyridin-2-yl)-5-methyl-2-azabicyclo[3.1.0] hexane-3-carboxamide], the IC50 is < 1 µM.

As for `CC(=O)c1cn(CC(=O)N2[C@H](C(=O)Nc3nc(C(F)(F)F)ccc3Cl)C[C@@]3(C)C[C@@H]23)c2c(C)nc(-c3cnc4cc(C)nn4c3)cc12` [Compound 24, (1R,3S,5R)-2-(2-(3-acetyl-7-methyl-5-(2-methylpyr-azolo[1,5-a]pyrimidin-6-yl)-1H-pyrrolo[2,3-c]pyr-idin-1-yl)acetyl)-N-(3-chloro-6-(trifluoromethyl)-pyridin-2-yl)-5-methyl-2-azabicyclo[3.1.0]hexane-3-carboxamide], the IC50 was < 1 µM.

`[2H]C([2H])([2H])OC([2H])([2H])c1ccc(C(F)(F)F)nc1NC(=O)[C@@H]1C[C@@]2(C)C[C@H]2N1C(=O)Cn1cc(C(C)=O)c2cc(-c3cnc4cc(C)nn4c3)cc(C)c21` [Compound 80, (1R,3S,5R)-2-(2-(3-acetyl-7-methyl-5-(2-methylpyr-azolo[1,5-a]pyrimidin-6-yl)-1H-indol-1-yl)acetyl)-N-(3-((methoxy-d3)meth-yl-d2)-6-(trifluoromethyl)-pyridin-2-yl)-5-methyl-2-azabicyclo[3.1.0]hexane-3-carboxamide]: the IC50 was < 1 µM.

`CC(=O)c1cn(CC(=O)N2[C@H](C(=O)Nc3nc(C(F)(F)F)ccc3C)C[C@@]3(C)C[C@@H]23)c2c(C)c(F)c(-c3cnc4cc(C)nn4c3)cc12` [Compound 49, (1R,3S,5R)-2-(2-(3-acetyl-6-fluoro-7-methyl-5-(2-methylpyrazolo[1,5-a]pyr-imidin-6-yl)-1H-indol-1-yl)acetyl)-5-methyl-N-(3-methyl-6-(trifluorometh-yl)pyridin-2-yl)-2-azabi-cyclo[3.1.0]hexane-3-car-boxamide]: the IC50 is < 1 µM.

As for `CC(=O)c1cn(CC(=O)N2C[C@H](F)C[C@H]2C(=O)N[C@@H](C)C(F)=C(C)C)c2c(C)cc(-c3cnc4cc(C)nn4c3)cc12` [Compound 37, (2S,4R)-1-(2-(3-acetyl-7-methyl-5-(2-methylpyr-azolo[1,5-a]pyrimidin-6-yl)-1H-indol-1-yl)acetyl)-4-fluoro-N-((S)-3-fluoro-4-methylpent-3-en-2-yl)pyr-rolidine-2-carboxamide], the 50% inhibitory concentration (IC50) is < 1 µM.

For the molecule `CC(=O)c1cn(CC(=O)N2[C@H](C(=O)N[C@@H](C)C(F)=C(C)C)C[C@@]3(C)C[C@@H]23)c2c(C)cc(-c3cnc4cc(C)nn4c3)cc12` [Compound 30, (1R,3S,5R)-2-(2-(3-acetyl-7-methyl-5-(2-methylpyr-azolo[1,5-a]pyrimidin-6-yl)-1H-indol-1-yl)acetyl)-N-((S)-3-fluoro-4-methyl-pent-3-en-2-yl)-5-methyl-2-azabicyclo[3.1.0]hexane-3-carboxamide], the IC50 was < 1 µM.

Regarding `CC(=O)c1cn(CC(=O)N2[C@H](C(=O)N[C@H](C)C(F)=C(C)C)C[C@@]3(C)C[C@@H]23)c2c(C)nc(-c3cnc4cc(C)nn4c3)cc12` [Compound 29, (1R,3S,5R)-2-(2-(3-acetyl-7-methyl-5-(2-methylpyr-azolo[1,5-a]pyrimidin-6-yl)-1H-pyrrolo[2,3-c]pyr-idin-1-yl)acetyl)-N-((R)-3-fluoro-4-methylpent-3-en-2-yl)-5-methyl-2-azabi-cyclo[3.1.0]hexane-3-car-boxamide], the 50% inhibitory concentration (IC50) is < 1 µM.

Take `CC(=O)c1cn(CC(=O)N2[C@H](C(=O)Nc3nc(C(F)(F)F)c(F)cc3C)C[C@@]3(C)C[C@@H]23)c2c(C)cc(-c3ccc4nc(C)nn4c3)cc12` [Compound 19, (1R,3S,5R)-2-(2-(3-acetyl-7-methyl-5-(2-methyl-[1,2,4]triazolo[1,5-a]pyr-idin-6-yl)-1H-indol-1-yl)-acetyl)-N-(5-fluoro-3-methyl-6-(trifluorometh-yl)pyridin-2-yl)-5-methyl-2-azabicyclo[3.1.0]hexane-3-carboxamide]: the IC50 was < 1 µM.

Regarding `CC(=O)c1cn(CC(=O)N2[C@H](C(=O)Nc3nc(C(F)(F)F)ccc3Cl)C[C@@]3(C)C[C@@H]23)c2c(C)cc(-c3cnc4cc(C)nn4c3)cc12` [Compound 51, (1R,3S,5R)-2-(2-(3-acetyl-7-methyl-5-(2-methylpyr-azolo[1,5-a]pyrimidin-6-yl)-1H-indol-1-yl)acetyl)-N-(3-chloro-6-(trifluoro-methyl)pyridin-2-yl)-5-methyl-2-azabicyclo[3.1.0] hexane-3-carboxamide], the half-maximal inhibitory concentration (IC50) was < 1 µM.

In the case of `COCc1ccc(C(F)(F)F)nc1NC(=O)[C@@H]1[C@@H]2C[C@@H]2CN1C(=O)Cn1cc(C(C)=O)c2cc(-c3ccc4nc(C)nn4c3)cc(C)c21` [Compound 4, (1R,2S,5S)-3-(2-(3-acetyl-7-methyl-5-(2-methyl-[1,2,4]triazolo[1,5-a]pyr-idin-6-yl)-1H-indol-1-yl)-acetyl)-N-(3-(methoxy-methyl)-6-(trifluorometh-yl)pyridin-2-yl)-3-aza-bicyclo[3.1.0]hexane-2-carboxamide], the IC50 is < 1 µM.

Turning to `CC(=O)c1cn(CC(=O)N2[C@H](C(=O)Nc3nc(Br)ccc3C3CC3)C[C@@]3(C)C[C@@H]23)c2c(C)cc(-c3cnc4cc(C)nn4c3)cc12` [Compound 8, (1R,3S,5R)-2-(2-(3-acetyl-7-methyl-5-(2-methylpyr-azolo[1,5-a]pyrimidin-6-yl)-1H-indol-1-yl)acetyl)-N-(6-bromo-3-cycloprop-ylpyridin-2-yl)-5-methyl-2-azabicyclo[3.1.0]hexane-3-carboxamide], the IC50 was > 10 µM.

For the molecule `CC(=O)c1cn(CC(=O)N2C[C@H]3C[C@H]3[C@H]2C(=O)Nc2nc(Br)ccc2C)c2c(C)cc(-c3cnc4cc(C)nn4c3)cc12` [Compound 63, (1R,2S,5S)-3-(2-(3-acetyl-7-methyl-5-(2-methylpyr-azolo[1,5-a]pyrimidin-6-yl)-1H-indol-1-yl)acetyl)-N-(6-bromo-3-methylpyr-idin-2-yl)-3-azabicyclo [3.1.0]hexane-2-carbox-amide], the IC50 was < 1 µM.

For the molecule `CC(=O)c1cn(CC(=O)N2[C@H](C(=O)Nc3nc(C(F)(F)F)ccc3C)C[C@@]3(C)C[C@@H]23)c2c(C)c(F)c(-c3cnc(C)nc3)cc12` [Compound 44, (1R,3S,5R)-2-(2-(3-acetyl-6-fluoro-7-methyl-5-(2-methylpyrimidin-5-yl)-1H-indol-1-yl)acetyl)-5-meth-yl-N-(3-methyl-6-(tri-fluoromethyl)pyridin-2-yl)-2-azabicyclo[3.1.0] hexane-3-carboxamide], the IC50 is < 1 µM.

For the molecule `CC(=O)c1cn(CC(=O)N2C[C@H](F)C[C@H]2C(=O)N[C@H](C)C(F)=C(C)C)c2c(C)cc(-c3cnc4cc(C)nn4c3)cc12` [Compound 34, (2S,4R)-1-(2-(3-acetyl-7-methyl-5-(2-methylpyr-azolo[1,5-a]pyrimidin-6-yl)-1H-indol-1-yl)acetyl)-4-fluoro-N-((R)-3-fluoro-4-methylpent-3-en-2-yl)-pyrrolidine-2-carboxamide], the IC50 is < 1 µM.

Consider `COCc1ccc(C(F)(F)F)nc1NC(=O)[C@@H]1C[C@@]2(C)C[C@H]2N1C(=O)Cn1cc(C(C)=O)c2cc(-c3cnc4cc(C)nn4c3)c(F)c(C)c21` [Compound 2, (1R,3S,5R)-2-(2-(3-acetyl-6-fluoro-7-methyl-5-(2-methylpyrazolo[1,5-a]-pyrimidin-6-yl)-1H-indol-1-yl)acetyl)-N-(3-(meth-oxymethyl)-6-(trifluoro-methyl)pyridin-2-yl)-5-methyl-2-azabicyclo[3.1.0] hexane-3-carboxamide], for which the half-maximal inhibitory concentration (IC50) was < 1 µM.

For the molecule `CC(=O)c1cn(CC(=O)N2[C@H](C(=O)Nc3nc(C(F)(F)F)ccc3C#N)C[C@@]3(C)C[C@@H]23)c2c(C)nc(-c3cnc4cc(C)nn4c3)cc12` [Compound 23, (1R,3S,5R)-2-(2-(3-acetyl-7-methyl-5-(2-methylpyr-azolo[1,5-a]pyrimidin-6-yl)-1H-pyrrolo[2,3-c]pyr-idin-1-yl)acetyl)-N-(3-cyano-6-(trifluoromethyl)-pyridin-2-yl)-5-methyl-2-azabicyclo[3.1.0]hexane-3-carboxamide], the concentration for half-maximal inhibition (IC50) was < 1 µM.

The term IC50 denotes the concentration that inhibits the measured activity by half. A higher IC50 goes with weaker potency in that assay.
